This is an account of results in patent US10544134B2, “4-substituted coumarin derivatives and preparation methods and uses thereof” (SI CHUAN UNIVERSITY, priority 2015, dated 2020).

Read-outs that look alike come from different tables or passages of the source. Marks after values point to notes of the source that are not given here.

For data set [1], the system named is colon carcinoma cell HCT-8. The data set is described as follows: Tumor cell proliferation inhibitory activity test in vitro (MTT). The note with it: Homo sapiens, sensitive cells, 72 hours. Type of data set: cell-based. The gist of the method:
(§1)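 Cells seeded at 1000-10000 per well overnight, then exposed to test concentrations for 72 hours at 37° C, 5% CO2 in DMEM+10% FBS.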

Data set [2] deals with ovarian cancer cell A2780s. The data set is described as above. The data set is classed as cell-based. The note with it: Homo sapiens, sensitive cells, 72 hours. In outline:
as §1

Data set [3] has as its system doxorubicin-resistant breast cancer cell MCF-7/ADR. The data set is described as above. As to conditions: Homo sapiens, NCI/ADR-RES, drug-resistant cells, 72 hours. Type of data set: cell-based. The gist of the method: as §1
For data set [4], the system named is breast cancer cell MCF-7. Described as above. Type of data set: cell-based. As to conditions: Homo sapiens. In outline:
as §1

Data set [5] deals with drug-resistant ovarian cancer cell A2780/T. Described as above. Type of data set: cell-based. As to conditions: Homo sapiens, drug-resistant cells, 72 hours. In outline:
as §1

For data set [6], the system named is HCT-8/V. The data set is described as above. Type of data set: cell-based. The note with it: Homo sapiens, drug-resistant cells, 72 hours.
Data set [7] relates to hepatocellular carcinoma cell HEPG2. The description is as above. The data set is classed as cell-based, human. The note with it: Homo sapiens, HepG2, 72 hours, read-out: IC50 of compounds for tumor cells, Activity, HEPG2. In outline: as §1
Data set [8] has as its system prostate cancer PC-3. The description is as above. As to conditions: Homo sapiens, 72 hours, read-out: IC50 of compounds for tumor cells, Activity, PC-3. The data set is classed as cell-based, human. In outline: as §1
For data set [9], the system named is colon carcinoma cell HCT116. The data set is described as above. The note with it: Homo sapiens, HCT-116, 72 hours, read-out: IC50 of compounds for tumor cells, Activity, HCT116. Type of data set: cell-based, human. The gist of the method:
as §1

Data set [10] deals with melanoma A375. The data set is described as above. As to conditions: Homo sapiens, A-375, 72 hours, read-out: IC50 of compounds for tumor cells, Activity, A375. The data set is classed as cell-based, human. The gist of the method: as §1
Data set [11] concerns non-small cell lung cancer cell line NCI-H460. The description is as above. The data set is classed as cell-based, human. As to conditions: Homo sapiens, NCI-H460, 72 hours, read-out: IC50 of compounds for tumor cells, Activity, H460. The gist of the method: as §1
The test system of data set [12] is tumor. The note with it: cited from earlier work.
Data set [13] deals with plural tumor cells. As to conditions: cited from earlier work.
The subject of data set [14] is human umbilical vein endothelial cells (HUVECs). The data set is described as follows: Wound healing test on HUVECs. The data set is classed as cell-based. The note with it: 24 h of cells migration.
Description: (§4) Obtain neonate umbilical cords from clinical sources after being approved by relevant authorities, put them into sterile PBS solution, provide ice bags at the external to keep them under low temperature, and return to the clean bench to operate. Insert a blunt needle into the human umbilical vein and wash with sterile PBS solution for multiple times until cleaning up the tainted blood. Clamp the lower end of the cord with surgical clamps, add collagenase with 1 mg/mL concentration (purchased from Roche) for digestion for 15 to 20 minutes at room temperature and shake the cord up and down at intervals. After digestion, open the surgical clamp at the lower end, let the digestive solution flow into a 50 mL centrifuge tube and wash the cord for 2-3 times with sterile PBS solution. Centrifuge the collected solution for 3 minutes at 1500 rpm. Discard the supernatant, resuspend cells with EBM-2 medium (purchased from lonza) containing various growth factors and incubate them in an incubator at constant temperature of 37° C. with 5% CO2 concentration.
Collect HUVECs between the 3rd to 7th subculture generations and plate them in the 6-well plate. When the cells were about to form a confluent monolayer of cells, change the medium into a serum-free medium to starve the cells for 6 h. […]
The subject of data set [15] is mouse colon carcinoma C26. The data set is described as follows: Pharmacodynamics in tumor-bearing mice, colon carcinoma C26 model.
Description: Collect tumor cells under aseptic conditions, adjust cell density to 5×10^7 cells/mL with sterilized physiological saline, subcutaneously inoculate 0.2 mL into armpit and back of nude mice, remove the tumor when it grew to 1 cm diameter under aseptic conditions, slice it into 1 mm×1 mm tumor blocks and evenly and subcutaneously inoculate it into armpit and back of nude mice for subculture. Remove the tumor under aseptic conditions after 2 subcultures and when it grew to 1 cm diameter, slice it into 1 mm×1 mm tumor blocks and evenly and subcutaneously inoculate it into armpit and back of nude mice. Conduct random grouping of animals after 7 days when the tumor grew to 100-300 mm^3 and perform tail intravenous injection (i.v.) once per two days, with dosages and administration methods shown in Table 3 and Table 4.
(1) Tumor volume (TV), relative tumor volume (RTV) and relative tumor proliferation rate: measure long diameter and short diameter of tumor in every two days using a vernier caliper or ruler with 1/50 mm precision and dynamically observe anti-tumor effects of tested drugs.
Formula for calculating tumor volume (TV) is: TV (mm3)=a×b^2×π/6; wherein a and b stand for long diameter and short diameter respectively.
Calculate relative tumor volume (RTV) based on the measured results with formula: RTV=Vt/V0, wherein V0 stands for the measured TV of each group at the time of being grouped for administration (i.e. d0) and Vt stands for the TV value of each group for every measurement.
The indicator used to evaluate anti-tumor activity is the relative tumor proliferation rate T/C (%), with the calculating formula as following:
TRTV: relative tumor volume of treated group; CRTV: relative tumor volume of negative control group.
Kill the animal at the end of treatment, dissect and remove the tumor, weigh the tumor and take a picture. The tumor inhibition rate (%) is calculated as the following formula:
The test system of data set [16] is microtubule in hepatocellular carcinoma cell HepG2. The data set is described as follows: Depolymerization on microtubule by immunofluorescence technique. As to conditions: HepG2, 16 h, three concentrations. Type of data set: cell-based, human. The text has this: Place round coverslips into 6-well plate, plate hepatocellular carcinoma cell HepG2 in the 6-well plate and make the cells adhere to the round coverslips.

Data set [17] relates to human umbilical vein endothelial cells (HUVECs). The data set is described as follows: Angiogenesis test on HUVECs. Type of data set: cell-based. As to conditions: Matrigel, 8 h treatment.
Description: as §4
Place Matrigel (purchased from Becton Dickinson (BD)) at 4° C. and make it in liquid state; precool the pipette tip, 96-well plate and EP tube to be used in the test.
Add Matrigel into the 96-well plate at 50 μL/well and incubate it in an incubator at 37° C. with CO2 concentration for 45 min to make it solidify. […]
Data set [18] relates to human ovarian cancer cell A2780S. The data set is described as follows: Pharmacodynamics in tumor-bearing nude mice, A2780S model. Type of data set: in vivo, mouse. The text has this: (§2) Test condition: animal house of SPF level, use permit No. of experiment animals: SYXK (J) 2015-0023
(§3) Weigh the mouse and measure length and width of tumor using a vernier caliper in every two days, perform cervical dislocation for the nude mice after 20 days of drug administration, remove the tumor tissues, weigh and take a picture. Calculate tumor inhibition rate (%) eventually to evaluate anti-tumor effects.

In data set [19] the test system is taxol-resistant ovarian cancer cell A2780/Taxol. The data set is described as follows: Pharmacodynamics in tumor-bearing nude mice, A2780/Taxol model. The data set is classed as in vivo, mouse.
Excerpt: as §2, §3

The mark [20] stands for this setting: cells marked (μM), read-out: IC50 MCF-7/ADR.
[21] abbreviates: MCF7, sensitive cells, 72 hours, read-out: IC50/nM MCF-7.
[22] abbreviates: cells marked (μM), read-out: IC50 HCT-8/V.
[23] abbreviates: MCF7, 72 hours, read-out: IC50 of compounds for tumor cells, Activity, MCF-7.
Where [24] appears, read: subcutaneously transplanted mouse colon carcinoma C26, 5 mg/kg i.v. once/two days.
Setting [25] is: A2780s model, 30 mg/kg intraperitoneal once/seven days.
[26] abbreviates: A2780/T model, 30 mg/kg intraperitoneal once/seven days.

Take `CC[C@]1(O)C[C@H]2CN(CCc3c([nH]c4ccccc34)[C@@](C(=O)OC)(c3cc4c(cc3OC)N(C=O)[C@H]3[C@@](O)(C(=O)OC)[C@H](OC(C)=O)[C@]5(CC)C=CCN6CC[C@]43[C@@H]65)C2)C1` [Vincristin, vincristin]: the IC50 stood at 14.8 ± 3.15 nM in [1]; 22.4 ± 2.68 nM in data set [2]; 5.85 ± 1.39 µM in [3] (setting [20]); 54.7 nM in data set [4] (setting [21]); 476 ± 76.1 nM in data set [5]; 0.023 ± 0.004 µM in data set [6] (setting [22]).
In the case of `COc1ccc(N(C)c2cc(=O)oc3ccccc23)cc1OC(=O)C1CCCC1` [COUM-73, 4-(N-methyl-N-(4-methoxy-3-(cyclopentyl-carbonyloxy)benzene)-amino) Coumarin], the IC50 was 1.68 ± 0.075 nM in data set [2]; 0.01 to 10 nM in [4] (setting [23]); 3.34 ± 0.101 nM in data set [5]; 0.01 to 10 nM in data set [7]; 0.01 to 10 nM in data set [8]; 0.01 to 10 nM in data set [9]. Besides, the IC50 in data set [10] and in data set [11] was 0.01 to 10 nM in each case.
For `COc1ccc2c(-c3ccc(OC)c(O)c3)cc(=O)oc2c1` [compound C], the “IC50 value, anti-tumor activity” value in data set [12] is listed as “dozens of nanomolar”.
On to `COc1ccc(N(C)c2nc(C)nc3ccccc23)cc1` [MPC-6827], for which the IC50 in [13] is 1 to 10 nM; in [1], 3.12 ± 0.066 nM; in [2], 3.16 ± 0.034 nM; in data set [3] (read-out: IC50/nM MCF-7/ADR), 0.000699 ± 5.3e-05 µM; in [4] (setting [23]) it was 0.01 to 10 nM; in data set [4] (setting [21]), 0.581 ± 0.004 nM. The IC50 in [5] is 4.11 ± 0.062 nM; in [6] (read-out: IC50/nM HCT-8/V), 0.00375 ± 0.000131 µM; in [7], 0.01 to 10 nM; in data set [8], 0.01 to 10 nM; in data set [9] it was 0.01 to 10 nM; in [10] it was 0.01 to 10 nM. In addition, the IC50 in data set [11] was in the range of 0.01 to 10 nM. Further, the “Inhibition of migration of HUVECs” value in data set [14] is recorded as “inhibit migration of HUVECs in a dose-dependent manner”. Also, the “Mouse weight during the treatment” value in data set [15] (colon carcinoma C26 model, 5 mg/kg i.v. once/two days) was “significant drops in weight and even died”. For the same compound, in data set [15] (setting [24]), the “Average tumor weight” value stood at 0.525 g. In data set [15] (setting [24]), the “Tumor inhibition rate (%)” value came out at 78.66%. The “Inhibition of polymerization of microtubule (immunofluorescence observation)” value in [16] is on record as “fails to form orderly filamentous structures due to inhibited polymerization”. Moreover, the “Inhibition of angiogenesis of HUVECs” value in [17] is reported as “inhibit angiogenesis of HUVECs in a dose-dependent manner”.
The compound `CC(=O)O[C@H]1C(=O)[C@@]2(C)[C@H]([C@H](OC(=O)c3ccccc3)[C@]3(O)C[C@H](OC(=O)[C@H](O)[C@@H](NC(=O)c4ccccc4)c4ccccc4)C(C)=C1C3(C)C)[C@]1(OC(C)=O)CO[C@@H]1C[C@@H]2O` [Taxol] displayed an IC50 in data set [1] of 37 ± 23.9 nM. In [2], this compound displayed an IC50 of 58.1 ± 24.1 nM. The IC50 in [3] (setting [20]) turned out to be 9.15 µM. Besides, the IC50 in data set [4] (setting [21]) is 32.3 ± 19.5 nM. In data set [5], the IC50 was 8120 ± 185 nM. In addition, the IC50 in data set [6] (setting [22]) turned out to be 0.189 ± 0.052 µM. Further, in [18] (setting [25]), the Death rate is 0/6, the “Mouse weight (g) Final” value is reported as 18.2 ± 0.4 g, the “Mouse weight (g) Initial” value is given as 21.0 ± 0.7 g and the “T/C (%)” value was determined as 13.1%. Moreover, in data set [18] (setting [25]), the “Tumor volume (mm^3) Final” value is 184.8 ± 26.6 ^c mm^3, the “Tumor volume (mm^3) Initial” value is given as 138.1 ± 25.6 mm^3, the “Tumor weight (g) X ± SD” value was 0.28 ± 0.07 ^c g and the “Tumor weight Inhibition rate %” value was 82.9%. Further, in data set [18] (mouse, in vivo), the “Weight drop in average” value is “about 2 g”. Also, in [19] (setting [26]), the Death rate is reported as 0/6, the “T/C (%)” value amounted to 75.4%, the “Tumor volume (mm^3) Final” value was 936.4 ± 347.9^ mm^3 and the “Tumor volume (mm^3) Initial” value was 155.6 ± 20.6 mm^3. Further, in data set [19] (setting [26]), the “Tumor weight (g) X ± SD” value is 0.79 ± 0.41 ^ g and the “Tumor weight Inhibition rate %” value turned out to be 37.7%. Also, in data set [19] (mouse, in vivo, ip, 30 mg/kg), the “Mouse weight (g) Final” value amounted to 19.4 ± 1.0 g and the “Mouse weight (g) Initial” value amounted to 20.3 ± 0.8 g.
